Experiment: xn = mol fraction of the nth substance listed
Details: 101 kPa, Liquid

CN1CCOCC1 [N-methylmorpholine] + O
Details | mass density, 293.15 K [kg/m3] | mass density, 303.15 K [kg/m3] | mass density, 313.15 K [kg/m3] | viscosity, 293.15 K [mPa·s] | viscosity, 303.15 K [mPa·s] | viscosity, 313.15 K [mPa·s]
x1 = 0.0452 | 1002.38 | 990.98 | 985.04 | 1.898 | 1.594 | 1.327
x1 = 0.0942 | 1005.32 | 993.65 | 982.32 | 2.577 | 2.036 | 1.715
x1 = 0.1267 | 1003.31 | 991.58 | 980.45 | 3.048 | 2.451 | 1.968
x1 = 0.1763 | 1000.27 | 988.46 | 977.58 | 3.562 | 2.922 | 2.348
x1 = 0.2022 | 996.93 | 985.14 | 974.42 | 3.777 | 3.065 | 2.482
x1 = 0.2538 | 991.88 | 980.12 | 969.64 | 4.115 | 3.386 | 2.703
x1 = 0.2843 | 988.53 | 976.81 | 966.47 | 4.238 | 3.497 | 2.838
x1 = 0.3275 | 983.61 | 971.96 | 961.8 | 4.395 | 3.619 | 2.908
x1 = 0.3754 | 977.87 | 966.31 | 956.33 | 4.439 | 3.669 | 2.901
x1 = 0.4033 | 974.29 | 962.77 | 952.91 | 4.429 | 3.636 | 2.869
x1 = 0.4286 | 971.29 | 959.83 | 950.06 | 4.406 | 3.635 | 2.869
x1 = 0.4689 | 966.09 | 954.72 | 945.1 | 4.331 | 3.562 | 2.798
x1 = 0.4983 | 962.76 | 951.45 | 941.92 | 4.241 | 3.521 | 2.758
x1 = 0.5433 | 957.25 | 946.05 | 936.67 | 4.065 | 3.363 | 2.602
x1 = 0.5983 | 950.09 | 939.74 | 930.57 | 3.798 | 3.128 | 2.388
x1 = 0.6438 | 945.88 | 934.89 | 925.8 | 3.544 | 2.878 | 2.244
x1 = 0.6942 | 941.06 | 931.06 | 922.05 | 3.187 | 2.588 | 2.031
x1 = 0.7587 | 934.53 | 924.36 | 916.24 | 2.792 | 2.262 | 1.764
x1 = 0.8163 | 929.89 | 920.39 | 912.31 | 2.323 | 1.857 | 1.495
x1 = 0.8869 | 924.9 | 915.52 | 907.94 | 1.791 | 1.489 | 1.222
x1 = 0.9244 | 922.59 | 913.29 | 905.91 | 1.503 | 1.359 | 1.077
x1 = 0.9812 | 919.88 | 910.58 | 903.31 | 1.166 | 1.091 | –
